Experimental data: patent publication US9974305B2, “Fungicidal or bactericidal composition, and method for controlling diseases” (NISSAN CHEMICAL INDUSTRIES, LTD., priority 2014, dated 2018)
Read-outs that look alike come from different tables or passages of the source.

Legend:
[1] = system: cucumber gray mold fungus (Botrytis cinerea); test: Preventive test against gray mold on cucumber cotyledon leaves, spray treatment, preventive value and Colby expected value (Test Examples 1-4); type: in vivo; settings: single compound; for pest or weed control at 100 ppm / pest or weed control at 3 ppm / pest or weed control at 10 ppm / pest or weed control at 50 ppm / pest or weed control at 5 ppm / pest or weed control at 35 ppm / pest or weed control at 8 ppm / pest or weed control at 25 ppm: Botrytis cinerea, 72 h; for pest or weed control at 3 ppm: 3 ppm spray; for pest or weed control at 35 ppm: 35 ppm spray; for pest or weed control at 8 ppm: 8 ppm spray; for pest or weed control at 25 ppm: 25 ppm spray
Experimental: Using the following compound listed in Table 2 (the active ingredient A) and the compound listed in Table 5 through Table 15 (active ingredient B), an agent was prepared in accordance with the above Formulation Example. This agent was diluted with water to a predetermined concentration to obtain a test solution. Then, cucumber (variety: Sagami-hanjiro) was planted in a plastic pot of 90 cm^3, and in the cotyledon stage, 5 ml of the obtained test solution, was sprayed by a spray gun and air-dried. Thereafter, the treated leaf was cut off and placed in a plastic container which filled approximately 0.5 cm in depth water. A suspension of conidia of cucumber gray mold fungus (Botrytis cinerea) and a dissolved PDA culture medium were mixed at a ratio of 1:1 (mass ratio), and the mixture was dropped to inoculate the treated leaf with 30 μl. After the inoculation, the plastic container was sealed and left at 20° C. for 3 days, the ratio of the formed lesion occupying the inoculated leaf was measured, and the preventive value was calculated in accordance with the following calculation formula. Preventive value=[1−(treated plot lesion area ratio/untreated plot lesion area ratio)]×100
Further, from the preventive value at each agent concentration, synergy was calculated by using the Colby method (Colby S. R. 1976, Weeds 15, 20-22). The calculation method is as follows. E=X+Y−XY/100
X: preventive value of A agent at x concentration
Y: preventive value of B agent at y concentration
E: theoretical value expected by treatment of the mixture of A agent and B agent.
The obtained result is analyzed to be synergy if the observed value is larger than the expected value, to be antagonism if the expected value is larger than the observed value, and to be an additive effect if the observed value and the expected value are the same.
Using the following compound listed in Table 2 (active ingredient A) and the following compound listed in Table 5 through Table 15 (active ingredient B) as active ingredients, a preventive test against gray mold was conducted in accordance with the method described in Test Example 1.
Using the following compound listed in Table 2 (active ingredient A) and the following compound listed in Table 5 or Table 6 (active ingredient B) as active ingredients, a preventive test against gray mold was conducted in accordance with the method described in Test Example 1.
Using the following compound listed in Table 2 (active ingredient A) and the following compound listed in Table 6 through Table 16 (active ingredient B) as active ingredients, a preventive test against gray mold was conducted in accordance with the method described in Test Example 1.

[2] = system: wheat glume blotch (Leptosphaeria nodorum); test: Efficacy test on wheat glume blotch, spray treatment and prevention test (Test Example 8); type: in vivo; settings: spray, lesion area ratio
Experimental: An agent comprising the following compound listed in Table 2 (active ingredient A) and the following compound listed in Table 6, Table 11 or Table 15 (active ingredient B) as active ingredients, was prepared in accordance with the above Formulation Example. This agent was diluted with water to a predetermined concentration to obtain a test solution. Then, to seedlings of wheat (variety: Haruyutaka) at the 1-leaf stage, seeded in a pot with a diameter of 7 cm, with 5 seeds per pot, and grown for 7 days, the test solution was applied by a spray gun in an amount of 5 ml per pot, for treatment. One day after the treatment, a spore suspension (1×100,000 cfu/ml) of wheat glume blotch (Leptosphaeria nodorum) was spray-inoculated, and the pot was placed in a moist chamber set in temperature of 20° C. and humidity more than 95% RH for 48 hours. After placing the pot in a glass greenhouse for 7 days, the ratio of the formed lesion area occupying the inoculated leaves was measured, and the preventive value was calculated in accordance with the following formula. Preventive value=[1−(treated plot lesion area ratio/untreated plot lesion area ratio)]×100
Further, from the preventive value for each agent concentration, synergy was calculated by using the Colby method (Colby S. R. 1976, Weeds 15, 20-22).

[3] = Test Example 4, 100 ppm spray, read-out: Preventive value
[4] = Test Example 1, read-out: Preventive value
[5] = Test Example 2, read-out: Preventive value
[6] = Test Example 4, 10 ppm spray, read-out: Preventive value
[7] = Test Example 4, 50 ppm spray, read-out: Preventive value

## Cn1cc(C(=O)Nc2cccc3c2[C@@H]2CC[C@H]3C2=C(Cl)Cl)c(C(F)F)n1 (racemic) [C01, benzovindiflupyr]
[1]; Test Example 3, 5 ppm spray
  Preventive value: 60

## C[C@@]1(c2ccc(Oc3ccccc3)cc2)OC(=O)N(Nc2ccccc2)C1=O (racemic) [C23, famoxadone]
[1]; [3]
  pest or weed control at 100 ppm: 35%

## Fc1ccc([C@]2(Cn3cncn3)O[C@H]2c2ccccc2Cl)cc1 (racemic) [Compound No. H10, epoxiconazole]
[1]; Test Example 1, 10 ppm spray
  Preventive value: 60
[1]; Test Example 2, 10 ppm spray
  Preventive value: 50
[2]; single compound 1 ppm
  Preventive value: 50

## CCCCNC(=O)n1c(NC(=O)OC)nc2ccccc21 [B01, benomyl]
[1]; [4]
  pest or weed control at 3 ppm: 50%
[1]; [5]
  pest or weed control at 3 ppm: 45%

## COC(=O)NC(=S)Nc1ccccc1NC(=S)NC(=O)OC [B05, thiophanate-methyl]
[1]; Test Example 3, 10 ppm spray, read-out: Preventive value
  pest or weed control at 10 ppm: 60%

## CCOc1ccc(NC(=O)OC(C)C)cc1OCC [B06, diethofencarb]
[1]; read-out: Preventive value, Test Example 3, 50 ppm spray
  pest or weed control at 50 ppm: 45%

## Cn1cc(C(=O)Nc2ccc(F)cc2-c2ccc(Cl)c(Cl)c2)c(C(F)F)n1 [C02, bixafen]
[1]; Test Example 3, 50 ppm spray
  Preventive value: 70

## O=C(Nc1ccccc1-c1ccc(Cl)cc1)c1cccnc1Cl [C03, boscalid]
[1]; [4]
  pest or weed control at 3 ppm: 60%
[1]; [5]
  pest or weed control at 3 ppm: 58%

## O=C(NCCc1ncc(C(F)(F)F)cc1Cl)c1ccccc1C(F)(F)F [C06, fluopyram]
[1]; Test Example 3, 5 ppm spray
  pest or weed control at 5 ppm: 63%

## CC(C)Oc1cccc(NC(=O)c2ccccc2C(F)(F)F)c1 [C07, flutolanil]
[1]; Test Example 3, 100 ppm spray, read-out: Preventive value
  pest or weed control at 100 ppm: 50%

## Cn1cc(C(=O)Nc2ccccc2-c2cc(F)c(F)c(F)c2)c(C(F)F)n1 [C08, fluxapyroxad]
[1]; Test Example 3, 1 ppm spray
  Preventive value: 65

## Cc1nn(C)c(Cl)c1C(=O)Nc1cccc2c1C(C)OC2(C)C (stereo not drawn) [C09, furametpyr]
[1]; Test Example 3, 100 ppm spray
  Preventive value: 55

## Cc1cc(OC(C)C)ccc1C(=O)C(C)(C)NC(=O)c1sccc1C [C10, isofetamid]
[1]; Test Example 3, 5 ppm spray
  Preventive value: 45

## Cc1ccccc1C(=O)Nc1cccc(OC(C)C)c1 [C12, mepronil]
[1]; read-out: Preventive value, Test Example 3, 10 ppm spray
  pest or weed control at 10 ppm: 60%

## Cc1nn(C)c(F)c1C(=O)Nc1ccccc1C(C)CC(C)C (stereo not drawn) [C14, penflufen]
[1]; Test Example 3, 100 ppm spray
  Preventive value: 65

## CC(C)CC(C)c1sccc1NC(=O)c1cn(C)nc1C(F)(F)F (stereo not drawn) [C15, penthiopyrad]
[1]; Test Example 3, 5 ppm spray
  pest or weed control at 5 ppm: 60%

## Cn1cc(C(=O)Nc2ccccc2C2CC2C2CC2)c(C(F)F)n1 (stereo not drawn) [C16, sedaxane]
[1]; Test Example 3, 10 ppm spray
  Preventive value: 50

## CO/N=C(/C(=O)OC)c1ccccc1COc1ccccc1C [C28, kresoxim-methyl]
[1]; Test Example 1, 10 ppm spray, read-out: Preventive value
  pest or weed control at 10 ppm: 45%
[1]; Test Example 2, 10 ppm spray, read-out: Preventive value
  pest or weed control at 10 ppm: 56%
[2]; Parastagonospora nodorum, single compound 5 ppm, read-out: Preventive value
  pest or weed control at 5 ppm: 45%

## CNC(=O)C(OC)c1ccccc1COc1cc(C)ccc1C (stereo not drawn) [C29, mandestrobin, reference compound]
[1]; Test Example 4, 10 ppm spray
  Preventive value: 45
[2]; single compound 10 ppm
  Preventive value: 50

## CNC(=O)/C(=N/OC)c1ccccc1CO/N=C(C)/C(=N/OC)C(/C)=N/OC [C31, orysastrobin]
[1]; Test Example 4, 50 ppm spray
  Preventive value: 40

## CO/C=C(/C(=O)OC)c1ccccc1COc1cccc(C(F)(F)F)n1 [C32, picoxystrobin, reference compound]
[1]; Test Example 4, 10 ppm spray
  Preventive value: 30
[2]; single compound 1 ppm
  Preventive value: 50

## COC(=O)N(OC)c1ccccc1COc1ccn(-c2ccc(Cl)cc2)n1 [C33, pyraclostrobin, reference compound]
[1]; [6]
  pest or weed control at 10 ppm: 50%
[2]; Parastagonospora nodorum, single compound 1 ppm, read-out: Preventive value
  pest or weed control at 1 ppm: 65%

## COC(=O)NCc1cc(/C(C)=N/OCc2cccc(C)n2)ccc1Cl [C36, pyribencarb-methyl, reference compound]
[1]; Test Example 4, 10 ppm spray
  Preventive value: 60
[2]; single compound 25 ppm
  Preventive value: 45

## O=[N+]([O-])c1cc(C(F)(F)F)c(Cl)c([N+](=O)[O-])c1Nc1ncc(C(F)(F)F)cc1Cl [C43, fluazinam]
[1]; [7]
  pest or weed control at 50 ppm: 45%

## N#Cc1c[nH]cc1-c1cccc2c1OC(F)(F)O2 [Compound No. E04, fludioxonil]
[1]; read-out: Preventive value, Test Example 1
  pest or weed control at 3 ppm: 60%
[1]; read-out: Preventive value, Test Example 2
  pest or weed control at 3 ppm: 58%

## CC(C)NC(=O)N1CC(=O)N(c2cc(Cl)cc(Cl)c2)C1=O [Compound No. F01, iprodione]
[1]; Test Example 1
  pest or weed control at 35 ppm: 50%
[1]; Test Example 2
  pest or weed control at 35 ppm: 48%

## Cc1cc(C2CC2)nc(Nc2ccccc2)n1 [D1, cyprodinil]
[1]; [7]
  pest or weed control at 50 ppm: 50%

## CC#Cc1cc(C)nc(Nc2ccccc2)n1 [D2, mepanipyrim]
[1]; Test Example 1
  pest or weed control at 8 ppm: 55%
[1]; Test Example 2
  pest or weed control at 8 ppm: 56%

## Fc1ccc(Oc2ccnc3cc(Cl)cc(Cl)c23)cc1 [E02, quinoxyfen]
[1]; [3]
  pest or weed control at 100 ppm: 5%

## CC12CC1(C)C(=O)N(c1cc(Cl)cc(Cl)c1)C2=O (stereo not drawn) [F02, procymidone]
[1]; [6]
  pest or weed control at 10 ppm: 55%

## COc1cc(Cl)c(OC)cc1Cl [G06, chloroneb]
[1]; read-out: Preventive value, Test Example 4, 100 ppm spray
  pest or weed control at 100 ppm: 35%

## CC(C1CC1)C(O)(Cn1cncn1)c1ccc(Cl)cc1 (stereo not drawn) [H05, cyproconazole]
[1]; [6]
  pest or weed control at 10 ppm: 45%

## CC1COC(Cn2cncn2)(c2ccc(Oc3ccc(Cl)cc3)cc2Cl)O1 (stereo not drawn) [H07, difenoconazole]
[1]; [6]
  pest or weed control at 10 ppm: 50%

## OC(c1ccc(Cl)cc1)(c1cncnc1)c1ccccc1Cl (stereo not drawn) [H12, fenarimol]
[1]; [6]
  pest or weed control at 10 ppm: 55%

## O=c1c2cc(F)ccc2nc(-n2cncn2)n1-c1ccc(Cl)cc1Cl [H15, fluquinconazole]
[1]; [6]
  pest or weed control at 10 ppm: 55%

## C[Si](Cn1cncn1)(c1ccc(F)cc1)c1ccc(F)cc1 [H16, flusilazole]
[1]; [6]
  pest or weed control at 10 ppm: 50%

## OC(Cn1cncn1)(c1ccc(F)cc1)c1ccccc1F (stereo not drawn) [H17, flutriafol]
[1]; [6]
  pest or weed control at 10 ppm: 45%

## CCCC(Cn1cncn1)c1ccc(Cl)cc1Cl (stereo not drawn) [H28, penconazole]
[1]; [6]
  pest or weed control at 10 ppm: 45%

## FC(F)C(F)(F)OCC(Cn1cncn1)c1ccc(Cl)cc1Cl (stereo not drawn) [H36, tetraconazole]
[1]; [6]
  pest or weed control at 10 ppm: 55%

## CC(Cc1ccc(C(C)(C)C)cc1)CN1CCCCC1 (stereo not drawn) [H44, fenpropidin]
[1]; [3]
  pest or weed control at 100 ppm: 35%

## CC(Cc1ccc(C(C)(C)C)cc1)CN1C[C@@H](C)O[C@@H](C)C1 (stereo partly drawn) [H45, fenpropimorph]
[1]; [3]
  pest or weed control at 100 ppm: 10%

## CC1(C(=O)Nc2ccc(O)c(Cl)c2Cl)CCCCC1 [H49, fenhexamid]
[1]; Test Example 1
  pest or weed control at 25 ppm: 30%
[1]; Test Example 2
  pest or weed control at 25 ppm: 25%

## O=C1c2ccccc2C(=O)N1SC(Cl)(Cl)Cl [L24, folpet]
[1]; [3]
  pest or weed control at 100 ppm: 45%

## O=C(Cc1ccccc1)N/C(=N\OCC1CC1)c1c(C(F)(F)F)ccc(F)c1F [M01, cyflufenamid]
[1]; [3]
  pest or weed control at 100 ppm: 15%

## COc1cc(C)c(C(=O)c2c(OC)ccc(Br)c2C)c(OC)c1OC [M09, metrafenone]
[1]; [3]
  pest or weed control at 100 ppm: 5%

## mancozeb [L16]
[1]; Test Example 4, 100 ppm spray
  Preventive value: 45
